Measurements reported in publication PMC7262789 (Journal of medicinal chemistry, 2019).
“Also recorded” adds a separate entry of the source.

How the values were obtained:
[1] = tested on: sEH-H; experiment: Epoxy fatty acid/diol ratios in rat plasma by LC-MS/MS; format: in vivo; conditions: rat plasma 8 h after 30 mg/kg p.o., vs vehicle
[2] = target: T1, recombinant sEH-P domain (N-terminal domain of sEH) (Homo sapiens, UniProt P34913); experiment: FDP-based phosphatase assay, isolated sEH-P domain; format: biochemical; conditions: FDP substrate, recombinant sEH-P domain
T1 sequence (P34913 1-222): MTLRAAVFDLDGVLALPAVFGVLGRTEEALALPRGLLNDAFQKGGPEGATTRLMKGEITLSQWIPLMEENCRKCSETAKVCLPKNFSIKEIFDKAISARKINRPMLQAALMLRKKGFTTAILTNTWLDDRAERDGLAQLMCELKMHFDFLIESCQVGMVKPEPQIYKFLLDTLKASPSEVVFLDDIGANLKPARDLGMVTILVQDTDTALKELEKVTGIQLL

[3] = target: T2, full-length human sEH (Homo sapiens, UniProt P34913); experiment: DiFMUP-based phosphatase assay, full-length sEH; conditions: DiFMUP substrate
T2 sequence (P34913 1-555): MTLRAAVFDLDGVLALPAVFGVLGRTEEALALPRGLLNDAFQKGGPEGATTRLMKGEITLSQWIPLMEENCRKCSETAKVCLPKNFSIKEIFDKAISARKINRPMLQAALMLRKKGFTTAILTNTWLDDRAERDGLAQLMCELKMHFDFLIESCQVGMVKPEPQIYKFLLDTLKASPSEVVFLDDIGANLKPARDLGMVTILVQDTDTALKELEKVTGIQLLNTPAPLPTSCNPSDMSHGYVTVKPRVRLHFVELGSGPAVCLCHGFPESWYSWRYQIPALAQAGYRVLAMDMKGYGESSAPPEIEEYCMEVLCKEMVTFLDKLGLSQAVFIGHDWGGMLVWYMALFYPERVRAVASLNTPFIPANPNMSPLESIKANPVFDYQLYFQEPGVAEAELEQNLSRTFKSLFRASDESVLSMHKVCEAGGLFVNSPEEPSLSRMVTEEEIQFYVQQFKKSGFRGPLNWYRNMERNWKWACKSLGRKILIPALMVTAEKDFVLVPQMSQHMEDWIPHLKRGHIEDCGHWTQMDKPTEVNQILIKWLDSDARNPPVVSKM

[4] = target: T3, PPARα (Homo sapiens, UniProt Q07869); experiment: Gal4 hybrid reporter gene assay in HEK293T cells; format: cell-based; conditions: at 10 μM; reference GW7647 1 μM
T3 sequence (Q07869 239-466 limits assumed): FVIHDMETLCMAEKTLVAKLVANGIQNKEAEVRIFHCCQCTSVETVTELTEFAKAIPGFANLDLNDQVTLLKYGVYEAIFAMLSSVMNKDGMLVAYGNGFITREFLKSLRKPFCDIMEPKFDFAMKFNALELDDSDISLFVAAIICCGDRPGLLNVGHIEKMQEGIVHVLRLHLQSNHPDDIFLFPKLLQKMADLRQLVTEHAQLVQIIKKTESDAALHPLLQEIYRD

[5] = target: T4, LXRα (Homo sapiens, UniProt Q13133); experiment: Gal4 hybrid reporter gene assay in HEK293T cells; format: cell-based; conditions: at 10 μM; reference T0901317 1 μM
T4 sequence (Q13133 209-447 limits assumed): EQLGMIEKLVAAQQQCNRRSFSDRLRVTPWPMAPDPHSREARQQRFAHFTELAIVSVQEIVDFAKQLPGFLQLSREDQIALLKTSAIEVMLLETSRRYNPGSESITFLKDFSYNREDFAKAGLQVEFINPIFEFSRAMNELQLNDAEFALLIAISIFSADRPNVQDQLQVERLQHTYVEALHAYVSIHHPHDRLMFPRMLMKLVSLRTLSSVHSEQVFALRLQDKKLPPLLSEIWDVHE

[6] = target: T5, isolated N-terminal domain of sEH (sEH-P) (Homo sapiens, UniProt P34913); experiment: DiFMUP-based phosphatase assay, isolated N-terminal domain; conditions: DiFMUP substrate
T5 sequence (P34913 1-222): T1 sequence (P34913 1-222)

[7] = target: T6, FXR (Homo sapiens, UniProt Q96RI1); experiment: Gal4 hybrid reporter gene assay in HEK293T cells; format: cell-based; conditions: at 10 μM; reference GW4064 1 μM
T6 sequence (Q96RI1 262-486 limits assumed): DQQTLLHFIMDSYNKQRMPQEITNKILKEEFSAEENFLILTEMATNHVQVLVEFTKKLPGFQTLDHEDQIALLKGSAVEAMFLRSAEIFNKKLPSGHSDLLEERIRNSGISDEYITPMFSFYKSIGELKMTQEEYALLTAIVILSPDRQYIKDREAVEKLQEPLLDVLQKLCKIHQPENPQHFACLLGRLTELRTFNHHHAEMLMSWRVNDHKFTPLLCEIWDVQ

[8] = target: T7, C-terminal domain of sEH (sEH-H) (Homo sapiens, UniProt P34913); experiment: Differential scanning fluorimetry; format: binding; conditions: inhibitor 50 μM
T7 sequence (P34913 235-555 limits assumed): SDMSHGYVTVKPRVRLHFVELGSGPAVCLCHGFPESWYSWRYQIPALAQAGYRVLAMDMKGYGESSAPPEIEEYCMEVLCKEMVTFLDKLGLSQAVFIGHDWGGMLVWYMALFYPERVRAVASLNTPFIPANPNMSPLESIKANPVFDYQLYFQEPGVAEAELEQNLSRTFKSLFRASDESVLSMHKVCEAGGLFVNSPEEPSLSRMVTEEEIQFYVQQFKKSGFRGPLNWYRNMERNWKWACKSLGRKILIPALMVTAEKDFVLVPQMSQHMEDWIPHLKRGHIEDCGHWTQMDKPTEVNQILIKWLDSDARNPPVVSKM

[9] = target: T8, LXRβ (Homo sapiens, UniProt P55055); experiment: Gal4 hybrid reporter gene assay in HEK293T cells; format: cell-based; conditions: at 10 μM; reference T0901317 1 μM
T8 sequence (P55055 222-460 limits assumed): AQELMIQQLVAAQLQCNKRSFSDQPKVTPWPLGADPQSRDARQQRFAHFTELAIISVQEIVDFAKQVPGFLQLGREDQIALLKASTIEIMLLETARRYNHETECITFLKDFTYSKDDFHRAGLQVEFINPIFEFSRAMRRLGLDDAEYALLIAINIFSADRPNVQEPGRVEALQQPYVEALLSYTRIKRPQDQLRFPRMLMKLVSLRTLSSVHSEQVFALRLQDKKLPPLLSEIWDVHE

[10] = target: T9, N-terminal domain of sEH (sEH-P) (Homo sapiens, UniProt P34913); experiment: Differential scanning fluorimetry; format: binding; conditions: inhibitor 50 μM
T9 sequence (P34913 2-224): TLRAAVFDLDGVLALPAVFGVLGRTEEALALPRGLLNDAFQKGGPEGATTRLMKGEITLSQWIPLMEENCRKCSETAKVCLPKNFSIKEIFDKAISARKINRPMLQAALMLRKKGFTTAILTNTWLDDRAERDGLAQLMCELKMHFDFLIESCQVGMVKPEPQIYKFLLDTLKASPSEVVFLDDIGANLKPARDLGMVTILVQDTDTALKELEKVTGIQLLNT

[11] = Pharmacokinetic study in male Sprague-Dawley rats; format: in vivo, rat; conditions: 30 mg/kg p.o., male SD rats
[12] = target: T10, human fl sEH (sEH-H activity) (Homo sapiens, UniProt P34913); experiment: PHOME-based hydrolase assay, full-length human sEH; format: biochemical
T10 sequence (P34913 1-555): T2 sequence (P34913 1-555)

[13] = target: T11, PPARβ/δ (Homo sapiens, UniProt Q03181); experiment: Gal4 hybrid reporter gene assay in HEK293T cells; format: cell-based; conditions: at 10 μM; reference L165,041 1 μM
T11 sequence (Q03181 211-439 limits assumed): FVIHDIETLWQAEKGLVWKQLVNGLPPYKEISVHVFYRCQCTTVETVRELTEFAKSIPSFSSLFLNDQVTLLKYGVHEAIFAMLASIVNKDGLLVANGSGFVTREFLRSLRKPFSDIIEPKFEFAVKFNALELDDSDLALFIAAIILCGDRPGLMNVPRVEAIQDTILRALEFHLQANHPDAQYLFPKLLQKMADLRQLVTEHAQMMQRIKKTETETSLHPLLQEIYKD

[14] = target: T12, PPARγ (Homo sapiens, UniProt P37231); experiment: Gal4 hybrid reporter gene assay in HEK293T cells; format: cell-based; conditions: at 10 μM; reference pioglitazone 1 μM
T12 sequence (P37231 238-503 limits assumed): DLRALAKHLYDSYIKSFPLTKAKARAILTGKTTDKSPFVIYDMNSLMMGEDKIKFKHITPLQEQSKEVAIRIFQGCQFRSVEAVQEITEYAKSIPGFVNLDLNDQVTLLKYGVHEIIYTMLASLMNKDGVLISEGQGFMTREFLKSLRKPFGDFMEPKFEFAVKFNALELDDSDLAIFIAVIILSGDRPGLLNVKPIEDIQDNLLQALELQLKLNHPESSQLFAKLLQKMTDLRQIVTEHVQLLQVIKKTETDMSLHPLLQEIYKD

O=C(O)CCCc1nc(-c2ccc(Cl)c(Cl)c2)c(-c2ccccc2)o1 [22b, 4-(4-(3,4-Dichlorophenyl)-5-phenyloxazol-2-yl)butanoic Acid]
ratio of main epoxy fatty acids to their respective diols [1]: did not influence | inhibitory potency toward sEH-P (SAR statement in words) [2]: further improved the inhibitory activity | mode of inhibition [3]: competitive inhibitor | PPARα transactivation of the reference agonist [4]: inactive at 10 μM | LXRα transactivation of the reference agonist [5]: inactive at 10 μM | mode of inhibition [6]: competitive inhibitor | FXR transactivation of the reference agonist [7]: inactive at 10 μM | stabilization of the C-terminal domain in DSF [8]: did not stabilize | LXRβ transactivation of the reference agonist [9]: inactive at 10 μM | stabilization of the N-terminal domain in DSF [10]: stabilized; also recorded: able to stabilize | maximum plasma concentration [11]: 48 µg/mL | IC50 [12]: ~9 µM | PPARβ/δ transactivation of the reference agonist [13]: inactive at 10 μM

O=C(O)CCc1nc(-c2ccccc2)c(-c2ccccc2)o1 [compound 5, oxaprozin, reference compound]
PPARα transactivation of the reference agonist [4]: inactive at 10 μM | LXRα transactivation of the reference agonist [5]: inactive at 10 μM | PPARγ transactivation of the reference agonist [14]: inactive at 10 μM | LXRβ transactivation of the reference agonist [9]: inactive at 10 μM | PPARβ/δ transactivation of the reference agonist [13]: inactive at 10 μM
